# Assays:
# serum iron levels [1] = assay: Effect of 50, 100 and 200 μg subcutaneous hepcidin on serum iron levels in mice (Example 2); format: in vivo; conditions: for serum iron levels compared to vehicle: p<0.01
# Procedure: Conversely, 50 μg and 100 μg doses were elevated (p<0.01) compared to the vehicle at 24 hours post dose. The elevated levels of serum iron could be due to the system's reaction to the clearance of hepcidin. […] Mortality was likely related to the stress of the blood collection. Serum iron levels normalized 72 hours post dose.
# [2] = Expanded acute toxicity study (NOAEL), single subcutaneous dose in dogs (Example 4); conditions: dog, in vivo
# Procedure: (§1) Hepcidin was evaluated in two expanded, acute studies in rats and dogs. These studies were conducted to determine the no-observed adverse effect level (NOAEL). The NOAEL was determined to be 5 mg/kg/day in dogs due to various clinical and histopathological observations.
# serum iron levels [3] = assay: Effect of subcutaneous hepcidin on serum iron levels in mice (Example 1); format: in vivo; conditions: 50 μg dose subcutaneously, p<0.05
# From the text: A study was designed to evaluate the effect of subcutaneous doses of hepcidin on serum iron levels in mice (n=6-7/group).
# serum iron levels [4] = assay: Effect of 1, 5, 10 and 50 mg subcutaneous hepcidin on serum iron levels in normal rats (Example 3); format: in vivo
# Procedure: A study was designed to evaluate doses of 1, 5, 10, and 50 mg of hepcidin delivered subcutaneously and their effect on serum iron levels in normal rats (n=7/group).
# [5] = normal rats, any dose level
# serum iron levels [6] = assay: Serum iron levels in expanded acute study in Sprague Dawley rats (Example 4)
# Procedure: A study was designed to evaluate doses of 5, 25, and 50 mg/kg of hepcidin (human equivalent dose of 0.8, 4, 8 mg/kg, respectively), delivered SC to Sprague Dawley rats (n=9/sex/group).
# [7] = Expanded acute toxicity study (NOAEL) in Sprague Dawley rats (Example 4); conditions: rat, in vivo
# Procedure: as §1
smiles,measurement,setting,value
CC[C@H](C)[C@@H]1NC(=O)[C@@H](NC(=O)[C@@H](NC(=O)[C@@H]2CCCN2C(=O)[C@H](Cc2ccccc2)NC(=O)[C@H](Cc2c[nH]cn2)NC(=O)[C@@H](NC(=O)[C@@H](N)CC(=O)O)[C@@H](C)O)[C@@H](C)CC)CSSC[C@@H](C(=O)N[C@@H](CCCCN)C(=O)N[C@H](C(=O)O)[C@@H](C)O)NC(=O)[C@@H]2CSSC[C@@H]3NC(=O)[C@@H]4CSSC[C@H](NC(=O)[C@H](Cc5ccccc5)NC1=O)C(=O)N[C@@H](CSSC[C@H](NC(=O)[C@H](CCCCN)NC(=O)[C@H](CO)NC(=O)[C@H](CCCNC(=N)N)NC(=O)[C@H](Cc1c[nH]cn1)NC3=O)C(=O)NCC(=O)N[C@@H](CCSC)C(=O)N2)C(=O)NCC(=O)N4 [hepcidin],serum iron levels compared to vehicle,"serum iron levels [1]; mice, 50 μg and 100 μg doses, 24 hours post dose",elevated
same,serum iron levels compared to vehicle,"serum iron levels [1]; mice, 50, 100 and 200 μg subcutaneously (all three doses), 4 hours post dose",significant decrease in serum iron levels
same,serum iron levels,"serum iron levels [1]; mice, 72 hours post dose",normalized
same,mortality,"serum iron levels [1]; mice, following the 4-hour blood collection, likely related to the stress of the blood collection",One mouse died
same,"administration site microscopic findings, Day 15: cystic space",[2],cystic space
same,"administration site microscopic findings, Day 15: fibrosis",[2],fibrosis
same,other adverse reactions,[2],"hunched posture, soft feces, gross pathology finding of “thick,” and subcutaneous fibrosis, mixed cell infiltration, and cysts present at recovery period"
same,"administration site microscopic findings, Day 4",[2]; 25 mg/kg,mixed cell infiltration in the administration site
same,decrease in serum iron levels compared to vehicle (average),serum iron levels [3]; 4 hours post dose,40%
same,decrease in serum iron levels compared to vehicle (average),serum iron levels [3]; 24 hours post dose,15%
same,time at which serum iron levels returned to pre-dose levels,"serum iron levels [4]; normal rats, 5 mg dose, post dose",48 h
same,return of serum iron levels to pre-dose levels,"serum iron levels [4]; normal rats, 10 mg and 50 mg dose groups, 72 hours post dose",did not return to pre-dose levels
same,effect on serum iron levels,"serum iron levels [4]; normal rats, 50 mg, at 72 hours",still demonstrated an effect
same,serum iron levels,"serum iron levels [4]; normal rats, 1, 5, 10 and 50 mg subcutaneously, all dose levels",significant decrease in serum iron levels
same,time of lowest serum iron concentrations,"serum iron levels [4]; normal rats, post dose, all three doses",4 h
same,lethargy,[5],No lethargy was observed
same,average serum iron levels compared to vehicle and pre-dose levels,"serum iron levels [6]; Sprague Dawley rats, 5, 25 and 50 mg/kg SC, all doses",significantly decreased
same,time of lowest serum iron level,"serum iron levels [6]; Sprague Dawley rats, post dose, all three doses",4 h
same,"toxicokinetic (TK) effect, male vs female",[7],comparable for both sexes
